Assay [1] has as its target T1, MerTK (Mus musculus, UniProt Q60805).
T1 construct: endogenous in cells; host or cells: RAW264 cells
T1 sequence (Q60805 19-994): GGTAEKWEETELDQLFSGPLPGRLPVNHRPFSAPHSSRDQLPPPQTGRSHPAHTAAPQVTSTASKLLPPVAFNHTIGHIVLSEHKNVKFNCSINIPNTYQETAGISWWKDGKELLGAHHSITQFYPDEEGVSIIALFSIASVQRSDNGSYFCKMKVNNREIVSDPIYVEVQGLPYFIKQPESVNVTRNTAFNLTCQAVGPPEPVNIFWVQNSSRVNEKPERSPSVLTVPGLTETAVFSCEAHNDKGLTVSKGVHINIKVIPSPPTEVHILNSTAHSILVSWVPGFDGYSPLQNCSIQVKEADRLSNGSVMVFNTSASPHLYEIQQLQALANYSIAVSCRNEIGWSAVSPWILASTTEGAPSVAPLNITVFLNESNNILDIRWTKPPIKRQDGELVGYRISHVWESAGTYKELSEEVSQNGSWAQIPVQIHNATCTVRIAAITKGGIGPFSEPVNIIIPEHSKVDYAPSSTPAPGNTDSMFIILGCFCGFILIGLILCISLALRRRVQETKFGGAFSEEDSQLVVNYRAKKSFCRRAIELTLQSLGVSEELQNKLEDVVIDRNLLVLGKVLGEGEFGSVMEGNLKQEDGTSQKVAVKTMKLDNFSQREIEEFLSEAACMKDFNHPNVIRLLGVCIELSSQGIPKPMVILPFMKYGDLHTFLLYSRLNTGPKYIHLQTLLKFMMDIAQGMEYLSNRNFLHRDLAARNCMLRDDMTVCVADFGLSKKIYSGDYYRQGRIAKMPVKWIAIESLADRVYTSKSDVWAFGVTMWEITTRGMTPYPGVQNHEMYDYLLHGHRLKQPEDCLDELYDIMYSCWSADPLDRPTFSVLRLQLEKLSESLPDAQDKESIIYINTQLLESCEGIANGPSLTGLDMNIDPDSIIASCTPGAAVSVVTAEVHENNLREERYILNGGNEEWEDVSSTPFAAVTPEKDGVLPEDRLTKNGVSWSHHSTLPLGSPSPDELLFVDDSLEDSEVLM
Description: MerTK degradation in RAW264 cells (Western blot). The assay is classed as cell-based. To be noted: RAW264.7, 0.001-1 μM, 4 hour-incubation at 37° C., read-out: RAW264 Max % MerTK Degradation. The method, then:
Compounds were reconstituted in DMSO to make 10 mM stock solutions. RAW264 cells were maintained in DMEM medium containing 10% FBS. Cells were seeded into 6-well plates with 2×10^6 cells per well. 2 μL of diluted compounds were added to cells to the final concentration of 0.001-1 μM. After a 4 hour-incubation at 37° C., cells were washed with DPBS (1×) once. Then RIPA lysis buffer with Halt Protease and Phosphatase Inhibitor Cocktail was added directly to the cells and cells were then incubated on ice for 10 min, then lysate was harvested into 1.5 mL Eppendorf tubes and centrifuged at 14,000 rpm for 10 min at 4° C. and the supernatants were collected for Western blots.
The protein concentration of cell lysates was quantified with Pierce™ BCA Protein Assay Kit. […] BCA working reagents were prepared by mixing BCA reagent A with reagent B in 50: 1 ratio. 200 μL of the BCA working reagents were added to 25 μL of BCA standard or cell lysates in microplate, and mixed thoroughly on a plate shaker for 30 seconds. After incubation at 37° C. for 30 min, the absorbance of samples at 562 nm were measured with EnVision Plate Reader.
Protein lysates were prepared in NuPAGE™ LDS sample buffer and NuPAGE™ sample reducing agent, and incubated at 95° C. for 5 min. […] The proteins were transferred to low fluorescence PVDF membranes using the Trans-Blot Turbo Transfer System. Membranes were then blocked in Odyssey blocking buffer at RT for 1 h followed by primary incubation at 4° C. overnight. The primary antibodies were MerTK goat polyclonal antibody and actin mouse monoclonal antibody. Membranes were washed three times with TBST (1×), and then incubated with IR Dye 800 CW Donkey anti-goat and IR Dye 700 CW Goat anti-mouse secondary antibodies in 1:10,000 dilution at RT for 1 h. The Western blot images were obtained using Odyssey Imaging System.
A general note: In western blotting, separated proteins are transferred to a membrane and probed.

The target in assay [2] is T2, MerTK (Homo sapiens, UniProt Q12866).
T2 construct: endogenous in cells; host or cells: Jurkat cells
T2 sequence (Q12866 21-999): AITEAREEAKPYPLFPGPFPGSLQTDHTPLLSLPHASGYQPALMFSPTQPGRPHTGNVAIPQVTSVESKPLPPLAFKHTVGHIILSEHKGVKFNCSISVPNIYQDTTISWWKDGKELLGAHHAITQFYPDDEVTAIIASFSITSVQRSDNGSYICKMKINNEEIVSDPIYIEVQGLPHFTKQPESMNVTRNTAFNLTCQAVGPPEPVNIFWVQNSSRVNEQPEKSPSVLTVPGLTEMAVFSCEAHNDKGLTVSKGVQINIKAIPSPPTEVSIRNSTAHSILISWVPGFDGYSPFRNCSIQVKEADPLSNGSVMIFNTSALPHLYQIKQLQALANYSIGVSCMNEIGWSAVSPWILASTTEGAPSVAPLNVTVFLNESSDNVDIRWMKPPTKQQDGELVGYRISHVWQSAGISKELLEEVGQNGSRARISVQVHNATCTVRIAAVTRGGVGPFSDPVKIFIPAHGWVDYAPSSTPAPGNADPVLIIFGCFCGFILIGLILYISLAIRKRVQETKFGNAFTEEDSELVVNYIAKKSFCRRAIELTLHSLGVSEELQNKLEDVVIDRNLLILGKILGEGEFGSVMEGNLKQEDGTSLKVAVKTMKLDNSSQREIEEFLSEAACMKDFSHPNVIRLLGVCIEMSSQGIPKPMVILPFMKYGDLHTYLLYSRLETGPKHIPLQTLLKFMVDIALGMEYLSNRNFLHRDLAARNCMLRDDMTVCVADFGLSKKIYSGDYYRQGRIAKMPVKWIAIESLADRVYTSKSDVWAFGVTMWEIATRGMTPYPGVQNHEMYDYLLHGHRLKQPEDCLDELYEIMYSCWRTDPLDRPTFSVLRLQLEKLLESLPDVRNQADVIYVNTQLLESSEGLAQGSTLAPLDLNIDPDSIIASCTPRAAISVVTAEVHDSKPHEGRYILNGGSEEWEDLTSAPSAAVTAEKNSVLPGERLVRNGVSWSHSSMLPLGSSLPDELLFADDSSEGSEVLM
Description: MerTk degradation in Jurkat cells (Western blot). The note with it: 0.001-1 μM, 4 hour-incubation at 37° C., read-out: Jurkat Max % MerTK Degradation. It is filed as cell-based. In outline:
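MerTK degradation was read by near-infrared Western blot, normalized to actin, in BCA-quantified lysates of Jurkat cells exposed to 0.001-1 μM compound for 4 h at 37 °C.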

Structures can show the parent of a compound that is named as a salt. Where two headings read alike, the source gives them in different places. A value given as a limit tells only on which side of the number the result lay.

With `CCCCNc1ncc2c(-c3ccc(CNCCCOCCCOCCCc4cccc5c4n(C)c(=O)n5C4CCC(=O)NC4=O)cc3)cn([C@H]3CC[C@H](O)CC3)c2n1` (stereo partly drawn) [I-6, Trans-3-[4-[3-(3-[3-[([4-[2-(butylamino)-7-[4-hydroxycyclohexyl]-7H-pyrrolo[2,3-d]pyrimidin-5-yl]phenyl]methyl)amino]propoxy]propoxy)propyl]-3-methyl-2-oxo-2,3-dihydro-1H-1,3-benzodiazol-1-yl]piperidine-2,6-dione], the Dmax on MerTK [1] and on MerTK [2] was greater than 50% each time.

`CCCCNc1ncc2c(-c3ccc(S(=O)(=O)N4CCN(CCOCCOCCOCCOCCCc5ccc6c(c5)n(C)c(=O)n6C5CCC(=O)NC5=O)CC4)cc3)cn([C@H]3CC[C@H](O)CC3)c2n1` (stereo partly drawn) [I-12, 3-(5-(1-(4-(4-(2-(Butylamino)-7-(trans-4-hydroxycyclohexyl)-7H-pyrrolo [2,3-d]pyrimidin-5-yl)phenylsulfonyl)piperazin-1-yl)-3,6,9,12-tetraoxapentadecan-15-yl)-3-methyl-2-oxo-2,3-dihydrobenzo[d]imidazol-1-yl)piperidine-2,6-dione]: the Dmax is greater than 50% at MerTK [1] and greater than 50% on MerTK [2] (Jurkat, 4 h). `CCCCNc1ncc2c(-c3ccc(S(=O)(=O)N4CCN(CCOCCOCCOCCOCCCc5cccc6c5n(C)c(=O)n6C5CCC(=O)NC5=O)CC4)cc3)cn([C@H]3CC[C@H](O)CC3)c2n1` (stereo partly drawn) [I-13, 3-[4-[1-(4-[4-[2-(Butylamino)-7-[trans-4-hydroxycyclohexyl]-7H-pyrrolo [2,3-d]pyrimidin-5-yl]benzenesulfonyl]piperazin-1-yl)-3,6,9,12-tetraoxapentadecan-15-yl]-3-methyl-2-oxo-2,3-dihydro-1H-1,3-benzodiazol-1-yl]piperidine-2,6-dione formate]: the Dmax at MerTK [1] was greater than 50%; at MerTK [2] (Jurkat, 4 h), greater than 50%. `O=C1CCC(N2C(=O)c3cccc(NCCOCCOCCOCCOCCN4CCN(Cc5ccc(-c6cn([C@H]7CC[C@H](O)CC7)c7nc(NCCC8CC8)ncc67)cc5)CC4)c3C2=O)C(=O)N1` (stereo partly drawn) [I-14, 4-(15-[4-[(4-[2-[(2-Cyclopropylethyl)amino]-7-[trans-4-hydroxycyclohexyl]-7H-pyrrolo[2,3-d]pyrimidin-5-yl]phenyl)methyl]piperazin-1-yl]-4,7,10,13-tetraoxa-1-azapentadecan-1-yl)-2-(2,6-dioxopiperidin-3-yl)-2,3-dihydro-1H-isoindole-1,3-dione formate]: the Dmax at MerTK [1] was greater than 50%; on MerTK [2] (Jurkat, 4 h) it was greater than 50%.

`COCCNc1ncc2c(-c3ccc(CN4CCN(CCOCCOCCOCCOCCNc5cccc6c5C(=O)N(C5CCC(=O)NC5=O)C6=O)CC4)cc3)cn([C@H]3CC[C@H](O)CC3)c2n1` (stereo partly drawn) [I-15, 2-(2,6-Dioxopiperidin-3-yl)-4-(15-[4-[(4-[2-[(2-methoxyethyl)amino]-7-[trans-4-hydroxycyclohexyl]-7H-pyrrolo[2,3-d]pyrimidin-5-yl]phenyl)methyl]piperazin-1-yl]-4,7,10,13-tetraoxa-1-azapentadecan-1-yl)-2,3-dihydro-1H-isoindole-1,3-dione diformate]: the Dmax is 20 to 50% on MerTK [1] and greater than 50% on MerTK [2] (Jurkat, 4 h).

Take `CCCCNc1ncc2c(-c3ccc(S(=O)(=O)N4CCN(C(=O)NCCCOCCCOCCCNc5cccc6c5C(=O)N(C5CCC(=O)NC5=O)C6=O)CC4)cc3)nn([C@H]3CC[C@H](O)CC3)c2n1` (stereo partly drawn) [I-19, 4-((4-(6-(Butylamino)-1-(trans-4-hydroxycyclohexyl)-1H-pyrazolo[3,4-d]pyrimidin-3-yl)phenyl)sulfonyl)-N-(3-(3-(3-((2-(2,6-dioxopiperidin-3-yl)-1,3-dioxoisoindolin-4-yl)amino)propoxy)propoxy)propyl)piperazine-1-carboxamide]: the Dmax was greater than 50% on MerTK [1] and greater than 50% at MerTK [2] (Jurkat, 4 h).

With `CCCCNc1ncc2c(-c3ccc(S(=O)(=O)N4CCN(C(=O)NCCCOCCCNc5cccc6c5C(=O)N(C5CCC(=O)NC5=O)C6=O)CC4)cc3)nn([C@H]3CC[C@H](O)CC3)c2n1` (stereo partly drawn) [I-20, 4-((4-(6-(Butylamino)-1-(trans-4-hydroxycyclohexyl)-1H-pyrazolo[3,4-d]pyrimidin-3-yl)phenyl)sulfonyl)-N-(3-(3-((2-(2,6-dioxopiperidin-3-yl)-1,3-dioxoisoindolin-4-yl)amino)propoxy)propyl)piperazine-1-carboxamide], the Dmax was greater than 50% on MerTK [1] and greater than 50% on MerTK [2] (Jurkat, 4 h).

On to `Cc1ncsc1-c1ccc(CNC(=O)[C@@H]2C[C@@H](O)CN2C(=O)[C@@H](NC(=O)COCCOCCOCCOCCn2ccc3c(Nc4nc(N[C@@H]5CCCC[C@@H]5N)cc5nc[nH]c(=O)c45)cccc32)C(C)(C)C)cc1` [I-230], for which the Dmax at MerTK [2] (Jurkat, 4 h) was less than 20%. Take `COc1ccc(Nc2nc(Nc3cc(OCCOCCOCCOCCOCCNc4cccc5c4C(=O)N(C4CCC(=O)NC4=O)C5=O)c(OC)cc3C)ncc2Cl)c(NS(C)(=O)=O)c1` (centres unmarked) [I-231]: on MerTK [2] (Jurkat, 4 h), the Dmax was less than 20%.

For the molecule `COc1cc(Nc2nc(N[C@H]3CCCC[C@H]3N)n3ccnc3c2C(N)=O)cc(OCCOCCOCCOCCNc2cccc3c2C(=O)N(C2CCC(=O)NC2=O)C3=O)c1` (some centres unmarked) [I-232], the Dmax on MerTK [2] (Jurkat, 4 h) is less than 20%.

With `CCC1CN(c2ccc(-c3ccnc(Nc4cc(OC)c(OC)c(OCCOCCOCCOCCOCC(=O)N[C@H](C(=O)N5C[C@H](O)C[C@H]5C(=O)NCc5ccc(-c6scnc6C)cc5)C(C)(C)C)c4)n3)cn2)CCN1` (some centres unmarked) [I-233], the Dmax at MerTK [2] (Jurkat, 4 h) was greater than 50%.

As for `CCC1CN(c2ccc(-c3ccnc(Nc4cc(OC)c(OC)c(OCCOCCOCCOCCOCCNc5cccc6c5C(=O)N(C5CCC(=O)NC5=O)C6=O)c4)n3)cn2)CCN1` (centres unmarked) [I-234], on MerTK [2] (Jurkat, 4 h), the Dmax is less than 20%. Same read-out and setting: the result for `CC(O)c1ccc2c(c1)n(C)c(=O)n2C1CCC(=O)NC1=O` (centres unmarked) [I-236] reads greater than 50%.

The values are drawn from patent US20260042762A1 (Kymera Therapeutics, Inc., priority 2018, published 2026).
